Where “and” joins values, the source holds several entries; their conditions need not be identical. Identical values can stand only once.
Columns and labels:
[1] = test system: superoxide dismutase (SOD) activity in RKO cells; assay: SOD activity in RKO cells; format: cell-based; details: 10 µg/mL, 24 h
Description: (§1) In addition, two colorectal cancer cell lines, RKO and SW1116, were distinguished based on a different response to the EB5 derivative. To perform subsequent analyses, the selected CRC lines were treated with EB5 derivative at a concentration of 10 µg/mL for 24 h. Untreated cells were used as a negative control. Three biological replicates were performed.
(§2) To examine the antioxidant capacity of the cells as well as lipid peroxidation and to evaluate the activity of antioxidant enzymes, the cells were suspended in lysis buffer (containing 4 mg of […]™ Protease Inhibitor Cocktail and 10 µL of Phosphatase Inhibitor Cocktail 3 in 1 mL of PBS; Sigma-Aldrich, St Louis, MO, USA). Subsequently, the cells were placed in liquid nitrogen for 30 min, followed by storage at −80 °C until further analysis.
(§3) Superoxide dismutase (SOD), glutathione peroxidase (GPx) and catalase (CAT) activities were assessed using a commercially purchased Cayman Chemicals Superoxide Dismutase Assay Kit, a Cayman Chemicals Glutathione Peroxidase Assay Kit and a Catalase Assay Kit (Cayman Chemicals, Ann Arbor, MI, USA), respectively, according to the manufacturer’s recommendations and based on a previous study. […] The level of change in absorbance was measured spectrophotometrically at the appropriate wavelength for the assay, i.e., for SOD in the range 440–460 nm, for GPx at 340 nm and for CAT at 540 nm.

[2] = test system: colorectal cancer cell lines RKO, HT29, DLD-1, HCT116, Caco2 and SW1116; assay: MTT cytotoxicity assay, statements over all tested cell lines; details: MTT, 24 h
Description: (§4) Six colorectal cancer cell lines, RKO, HT29, DLD-1, HCT116, Caco2 and SW1116 (CRL-2577, HTB-38, CCL-221, CCL-247, HTB-37, CCL-233; ATCC, Manassas, VA, USA, respectively, for CRC lines), and one normal cell line, CCD-841CoN (CRL-1790, ATCC, USA), were routinely cultured at 37 °C in a 5% CO2 incubator (Direct Heat CO2; Thermo Scientific, Waltham, MA, USA) in cell line-appropriate culture medium according to the manufacturer’s recommendations. Eagle’s minimum essential medium (EMEM) was used to culture RKO, Caco2 and CCD-841CoN lines, while McCoy’s 5A medium was used for HT29 and HCT116 lines. DLD-1 cells were grown in RPMI-1640 medium, whereas SW1116 cells were maintained in Leibovitz’s L-15 medium. All culture media were supplemented with 10% fetal bovine serum (EuroClone, Milan, Italy), and gentamycin at the concentration […] (BioWhittaker, Lonza, Basel, Switzerland) was also applied to prevent culture contamination.
(§5) For this purpose, cells were exposed to the test compound for 24 h at concentrations of 0.1, 1, 10, 20, 50 and 100 μg/mL. Control cells were not treated with the compounds. MTT (0.25 mg/mL) was then added to the cultures and incubated for 3 h at 37 °C. After a time, the cells were washed with phosphate buffered saline (PBS), and next, formazan dye was dissolved in 100 μL of dimethyl sulfoxide (Sigma-Aldrich, St Louis, MO, USA). Absorbance was measured at 540 nm using a Wallac 1420 VICTOR microplate reader (PerkinElmer, Waltham, MA, USA).

HT29 cells = assay: MTT cytotoxicity assay, HT29; format: cell-based; details: Homo sapiens, HT-29; HT29, MTT, 24 h; read-out: IC50 value
Source text: (§6) Control cells were not treated with the compounds.

SW1116 cells [3] = assay: Lipid peroxidation, MDA assay, SW1116; format: cell-based; details: SW1116, 10 µg/mL, 24 h
Description: (§7) In addition, two colorectal cancer cell lines, RKO and SW1116, were distinguished based on a different response to the EB5 derivative. […] Untreated cells were used as a negative control. Three biological replicates were performed. To examine the antioxidant capacity of the cells as well as lipid peroxidation and to evaluate the activity of antioxidant enzymes, the cells were suspended in lysis buffer (containing 4 mg of […]™ Protease Inhibitor Cocktail and 10 µL of Phosphatase Inhibitor Cocktail 3 in 1 mL of PBS; Sigma-Aldrich, St Louis, MO, USA). Subsequently, the cells were placed in liquid nitrogen for 30 min, followed by storage at −80 °C until further analysis. To assess the level of lipid peroxidation, the Malondialdehyde Assay Kit (Aoxre BioSciences, Burlingame, CA, USA) was used, according to the manufacturer’s recommendations.

[4] = test system: glutathione peroxidase (GPx) activity in RKO cells; assay: GPx activity in RKO cells; format: cell-based; details: 10 µg/mL, 24 h
Description: as §1, §2, §3

[5] = test system: catalase (CAT) activity in SW1116 cells; assay: CAT activity in SW1116 cells; format: cell-based; details: SW1116, 10 µg/mL, 24 h
Description: as §1, §2
Superoxide dismutase (SOD), glutathione peroxidase (GPx) and catalase (CAT) activities were assessed using a commercially purchased Cayman Chemicals Superoxide Dismutase Assay Kit, a Cayman Chemicals Glutathione Peroxidase Assay Kit and a Catalase Assay Kit (Cayman Chemicals, Ann Arbor, MI, USA), respectively, according to the manufacturer’s recommendations and based on a previous study. The cell supernatant from previously prepared cell lysates of the tested lines provided material for further analyses. The level of change in absorbance was measured spectrophotometrically at the appropriate wavelength for the assay, i.e., for SOD in the range 440–460 nm, for GPx at 340 nm and for CAT at 540 nm.

RKO cells [6] = assay: Lipid peroxidation, MDA assay, RKO; format: cell-based; details: 10 µg/mL, 24 h
Description: as §7

[7] = test system: CAT gene expression in RKO cells; assay: CAT mRNA, real-time RT-qPCR, RKO; format: cell-based; details: 10 µg/mL, 24 h
Description: as §1
Total RNA from treated cells was extracted using TRIzol reagent (Sigma-Aldrich, St Louis, MO, USA) according to the manufacturer’s instructions. The obtained RNA was assessed qualitatively and quantitatively by agarose gel electrophoresis and by spectrophotometric measurement using MaestroNano MN-913 (MaestroGen Inc., Las Vegas, NV, USA), respectively. The obtained extracts provided the starting material for the assessment of genes changes at the mRNA level.
Changes in the expression of SOD1, SOD2, CAT and GPX3 genes involved in antioxidant systems were assessed by real-time RT-qPCR using a LightCycler® 480 System apparatus (Roche, Basel, Switzerland). A commercially purchased GoTaq® 1-Step RT-qPCR System (Promega, Madison, WI, USA) was used, while the primers and reaction conditions were the same as in the previous study performed by Kruszniewska-Rajs et al.. GAPDH was used as the reference gene. The mRNA expression level studied genes were then determined by the 2^−ΔCt relative quantification method. All samples were tested in triplicate. The specificity of the reaction was evaluated based on the melting temperature curve, as well as using electrophoresis of the amplification products in a 2% agarose gel.

SW1116 cells [8] = assay: MTT cytotoxicity assay, SW1116; details: Homo sapiens, SW 1116, 24 h
Description: as §4, §5

Caco2 cells = assay: MTT cytotoxicity assay, Caco2; format: cell-based; details: Homo sapiens, Caco-2; Caco2, MTT, 24 h; read-out: IC50 value
DLD-1 cells = assay: MTT cytotoxicity assay, DLD-1; format: cell-based; details: Homo sapiens; DLD-1, MTT, 24 h; read-out: IC50 value
Source text: as §6

HCT116 cells = assay: MTT cytotoxicity assay, HCT116; format: cell-based; details: Homo sapiens; HCT 116, MTT, 24 h; read-out: IC50 value
Source text: as §6

RKO cells [9] = assay: MTT cytotoxicity assay, RKO; details: Homo sapiens, 24 h
Description: as §4, §5

## O=c1[nH]cc(F)c(=O)[nH]1 [5FU, 5-fluorouracil]
[1]
  SOD activity compared to cells treated with betulin: modest increase
[2]
  cytotoxic effect compared with the other tested compounds: weaker
HT29 cells
  IC50: > 100 µg/mL and > 769 µM
SW1116 cells [3]
  MDA level compared to the control: did not cause changes
[4]
  GPx activity vs. cells treated with EB5: slight increase
[5]
  catalase activity compared to cells treated with EB5: higher catalase activity
  catalase activity compared to cells treated with betulin: higher catalase activity
  catalase activity compared to the control: higher catalase activity
RKO cells [6]
  increase in MDA levels compared to the control cells: about 62.2%
[7]
  CAT gene expression vs. untreated cells: significant decrease in expression
SW1116 cells [8]
  viability at 10 µg/mL: ≥ 50%
SW1116 cells [8]; read-out: IC50 value
  IC50: > 100 µg/mL and > 769 µM
Caco2 cells
  IC50: > 100 µg/mL and > 769 µM
DLD-1 cells
  IC50: > 100 µg/mL and > 769 µM
HCT116 cells
  IC50: > 100 µg/mL and > 769 µM
RKO cells [9]
  viability at 10 µg/mL: ≥ 50%
RKO cells [9]; read-out: IC50 value
  IC50: > 100 µg/mL and > 769 µM
